Test results: ChEMBL document CHEMBL1201862, “PubChem BioAssay data set” (2004)
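Values below derive from 48-hour exposures of cells grown in 96-well plates, with endpoints linearly interpolated between the two concentrations bracketing the appropriate inhibition level. The concentration for 50% growth inhibition is given as GI50.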 Active and inactive are the calls of the source. No stated cut-off is given here; in the data, active = GI50 up to about 1.1 µM and inactive = higher.

Key:
Test in all cases: NCI anticancer screen, dose series, 48 h
BT-549 = test system: BT-549
CAKI-1 = test system: CAKI-1
HCT-15 = test system: HCT-15
HT-29 = test system: HT-29
MDA-MB-231 = test system: MDA-MB-231
MDA-MB-435 = test system: MDA-MB-435
OVCAR-4 = test system: OVCAR-4
PC-3 = test system: PC-3
RPMI-8226 = test system: RPMI-8226
SF-268 = test system: SF-268
SK-MEL-2 = test system: SK-MEL-2
SK-MEL-5 = test system: SK-MEL-5
SN12C = test system: SN12C
SW-620 = test system: SW-620
U-251 = test system: U-251
UACC-257 = test system: UACC-257
OVCAR-3 = test system: OVCAR-3
SF-295 = test system: SF-295
SR = test system: SR
SK-OV-3 = test system: SK-OV-3

| SMILES | GI50 (BT-549) | GI50 (CAKI-1) | GI50 (HCT-15) | GI50 (HT-29) | GI50 (MDA-MB-231) | GI50 (MDA-MB-435) | GI50 (OVCAR-4) | GI50 (PC-3) | GI50 (RPMI-8226) | GI50 (SF-268) | GI50 (SK-MEL-2) | GI50 (SK-MEL-5) | GI50 (SN12C) | GI50 (SW-620) | GI50 (U-251) | GI50 (UACC-257) | GI50 (OVCAR-3) | GI50 (SF-295) | GI50 (SR) | GI50 (SK-OV-3) |
| --- | --- | --- | --- | --- | --- | --- | --- | --- | --- | --- | --- | --- | --- | --- | --- | --- | --- | --- | --- | --- |
| Cc1nc2c(cc1OCc1ccccc1)C(=O)C1=C(C2=O)C2OC(=O)CC2OC1(C)C (stereo not drawn) | 0.564 µM (active) | 0.468 µM (active) | 0.228 µM | 0.375 µM (active) | 0.43 µM (active) | 0.55 µM (active) | 0.498 µM (active) | 0.56 µM (active) | 0.368 µM (active) | 0.475 µM (active) | 1.46 µM (inactive) | 1.18 µM (inactive) | 0.182 µM (active) | 0.322 µM (active) | 0.859 µM (active) | 0.671 µM (active) |  |  |  |  |
| CNc1cc2oc(=O)cc(C)c2cc1C | 15.4 µM (inactive) | > 100 µM (inactive) | > 100 µM | > 100 µM (inactive) | > 100 µM (inactive) | 86.3 µM (inactive) | > 100 µM (inactive) | > 100 µM (inactive) | > 100 µM (inactive) | > 100 µM (inactive) | > 100 µM (inactive) | 30.1 µM (inactive) | > 100 µM (inactive) | > 100 µM (inactive) | > 100 µM (inactive) | > 100 µM (inactive) | > 100 µM (inactive) | > 100 µM (inactive) | 36.4 µM (inactive) |  |
| COC(=O)Nc1nc2cc(NS(=O)(=O)c3ccc(F)cc3)ccc2[nH]1 | > 100 µM (inactive) | 23.6 µM (inactive) | 8.22 µM | 7.73 µM (inactive) | 21.9 µM (inactive) | 2.65 µM (inactive) | 33.9 µM (inactive) | 22.9 µM (inactive) | 15 µM (inactive) | 72.6 µM (inactive) | 31 µM (inactive) | 5.77 µM (inactive) | 68.9 µM (inactive) | 6.27 µM (inactive) | 19.1 µM (inactive) |  | 2.8 µM (inactive) | 14.5 µM (inactive) |  | 13.1 µM (inactive) |
| COc1ccc(-c2cc(=O)c3c(OC)c(OC)c(OC)cc3o2)cc1 | 31.7 µM (inactive) | 68.7 µM (inactive) | 32.7 µM | 28.4 µM (inactive) | 43.8 µM (inactive) | 32.2 µM (inactive) | 24.2 µM (inactive) |  | 27 µM (inactive) | 31.1 µM (inactive) | 21.1 µM (inactive) | 13.2 µM (inactive) | 25.2 µM (inactive) | 36.8 µM (inactive) | 26.3 µM (inactive) | 40.8 µM (inactive) | 26.8 µM (inactive) | 24.5 µM (inactive) | 11.3 µM (inactive) | 24.3 µM (inactive) |
| CCCCOC(=O)C(NC(C(=O)OCCCC)c1cc(C(C)(C)C)c(O)c(C(C)(C)C)c1)c1cc(C(C)(C)C)c(O)c(C(C)(C)C)c1 (stereo not drawn) | > 100 µM (inactive) | > 100 µM (inactive) | > 100 µM | 76 µM (inactive) | > 100 µM (inactive) | > 100 µM (inactive) | > 100 µM (inactive) | > 100 µM (inactive) | 31.5 µM (inactive) | > 100 µM (inactive) | > 100 µM (inactive) | > 100 µM (inactive) | > 100 µM (inactive) | > 100 µM (inactive) | > 100 µM (inactive) | > 100 µM (inactive) | > 100 µM (inactive) | > 100 µM (inactive) |  | > 100 µM (inactive) |
| O=C(O)c1cc2ccccc2c(/N=N/c2ccccc2)c1O | 20.8 µM (inactive) | 35.6 µM (inactive) | 27.9 µM | 11.8 µM (inactive) | > 100 µM (inactive) | 15.1 µM (inactive) | > 100 µM (inactive) | 18.5 µM (inactive) | 21.6 µM (inactive) | 30 µM (inactive) | > 10 µM (inactive) | 5.47 µM (inactive) | 23.3 µM (inactive) | 23.8 µM (inactive) | 12.8 µM (inactive) | 15.6 µM (inactive) | 26.2 µM (inactive) | 12.4 µM (inactive) |  | 41.9 µM (inactive) |
| CC12CC3c4ccccc4CN1C3(c1ccccc1)OC2=O (stereo not drawn) | > 100 µM (inactive) | > 100 µM (inactive) | > 100 µM | > 100 µM (inactive) | > 100 µM (inactive) | > 100 µM (inactive) | > 100 µM (inactive) | > 100 µM (inactive) |  | > 100 µM (inactive) | > 100 µM (inactive) | > 100 µM (inactive) | > 100 µM (inactive) | > 100 µM (inactive) | > 100 µM (inactive) | > 100 µM (inactive) |  | > 100 µM (inactive) |  | > 100 µM (inactive) |
| CC(CCCCNC(=O)OC(C)(C)C)NC(=O)NC(C)CCCCNC(=O)OC(C)(C)C (stereo not drawn) | > 100 µM (inactive) | > 100 µM (inactive) | > 100 µM | > 100 µM (inactive) | > 100 µM (inactive) | > 100 µM (inactive) | 81.5 µM (inactive) | > 100 µM (inactive) |  | > 100 µM (inactive) |  | 30 µM (inactive) | > 100 µM (inactive) | > 100 µM (inactive) | > 100 µM (inactive) | 43.5 µM (inactive) | 57 µM (inactive) | 63.5 µM (inactive) | 99.8 µM (inactive) | > 100 µM (inactive) |
| c1ccc(COc2ncccc2C2SCCCS2)cc1 | > 100 µM (inactive) | > 100 µM (inactive) | > 100 µM |  | > 100 µM (inactive) | > 100 µM (inactive) | > 100 µM (inactive) | > 100 µM (inactive) | > 100 µM (inactive) | > 100 µM (inactive) | > 100 µM (inactive) | > 100 µM (inactive) | > 100 µM (inactive) | > 100 µM (inactive) | > 100 µM (inactive) | > 100 µM (inactive) | > 100 µM (inactive) | > 100 µM (inactive) | 70 µM (inactive) |  |
| CCCCCCCc1ccc(-c2nnc(/N=N/c3ccc(OCCCCC)cc3)s2)s1 | > 100 µM (inactive) | > 100 µM (inactive) | > 100 µM | > 100 µM (inactive) | > 100 µM (inactive) | > 100 µM (inactive) | > 100 µM (inactive) | > 100 µM (inactive) | > 100 µM (inactive) | > 100 µM (inactive) | > 100 µM (inactive) | > 100 µM (inactive) | > 100 µM (inactive) | > 100 µM (inactive) | > 100 µM (inactive) | > 100 µM (inactive) | > 100 µM (inactive) | > 100 µM (inactive) |  | > 100 µM (inactive) |
| CC(C)N(C(C)C)S(=O)(=O)C[C@]12CC[C@H](CC13OCC(CS(=O)(=O)c1ccccc1)O3)C2(C)C (stereo partly drawn) | > 85.3 µM (inactive) | 81.3 µM (inactive) | 47 µM | 33.4 µM (inactive) | > 100 µM (inactive) | 47.1 µM (inactive) | 40.8 µM (inactive) | 35.3 µM (inactive) | 26.5 µM (inactive) | 59.2 µM (inactive) | 52.5 µM (inactive) | 29.4 µM (inactive) | 47.8 µM (inactive) | 45 µM (inactive) | 52 µM (inactive) | 28.2 µM (inactive) | 31.3 µM (inactive) | 28.4 µM (inactive) |  | 45.5 µM (inactive) |
| CCOP(=O)(Nc1ccccc1P(=O)(OCC)OCC)OCC | > 100 µM (inactive) | > 100 µM (inactive) | > 100 µM | > 100 µM (inactive) | > 100 µM (inactive) | > 100 µM (inactive) | > 100 µM (inactive) | > 100 µM (inactive) | > 100 µM (inactive) | > 100 µM (inactive) | > 100 µM (inactive) | > 100 µM (inactive) |  | > 100 µM (inactive) | > 100 µM (inactive) | > 100 µM (inactive) | > 100 µM (inactive) | > 100 µM (inactive) |  | > 100 µM (inactive) |
| c1cnn(C23C4C5C6C4C2C6C53)c1 (stereo not drawn) | 71.6 µM (inactive) |  | > 100 µM | > 100 µM (inactive) | > 100 µM (inactive) | > 100 µM (inactive) |  | > 100 µM (inactive) | > 100 µM (inactive) | > 100 µM (inactive) | > 100 µM (inactive) | > 100 µM (inactive) | > 100 µM (inactive) | > 100 µM (inactive) | > 100 µM (inactive) | > 100 µM (inactive) |  | > 100 µM (inactive) | > 100 µM (inactive) | > 100 µM (inactive) |
| CCNc1ccc2c(c1)Cc1ccccc1-2 | 34.5 µM (inactive) | 27.2 µM (inactive) | 7.38 µM | 50.5 µM (inactive) | 64.1 µM (inactive) | 49.5 µM (inactive) | 75.3 µM (inactive) | 35.4 µM (inactive) | 47.3 µM (inactive) | 46.2 µM (inactive) | 56.1 µM (inactive) | 25.8 µM (inactive) | 64 µM (inactive) | 83.6 µM (inactive) | 44.3 µM (inactive) | 49.7 µM (inactive) | 29 µM (inactive) | 47.6 µM (inactive) | 14.5 µM (inactive) |  |
| Cc1nc(C)c(C(=O)NNC(N)=S)cc1C(=O)NNC(N)=S | > 100 µM (inactive) | > 100 µM (inactive) | > 100 µM | > 100 µM (inactive) | > 100 µM (inactive) | > 100 µM (inactive) | > 100 µM (inactive) | > 100 µM (inactive) | > 100 µM (inactive) | > 100 µM (inactive) | > 100 µM (inactive) | > 100 µM (inactive) | > 100 µM (inactive) | > 100 µM (inactive) | > 100 µM (inactive) | > 100 µM (inactive) | > 100 µM (inactive) | > 100 µM (inactive) |  | > 100 µM (inactive) |
| COc1cc([C@@H]2c3cc4c(cc3[C@@H](NCCNCCO)[C@H]3COC(=O)[C@H]23)OCO4)cc(OC)c1O | 2.14 µM (inactive) | 2.83 µM (inactive) | 34.6 µM | 2 µM (inactive) | 3.69 µM (inactive) | 9.44 µM (inactive) | 14.4 µM (inactive) | 3.78 µM (inactive) |  |  | 2.78 µM (inactive) | 0.659 µM (active) |  | 2.84 µM (inactive) | 0.813 µM (active) | 5.02 µM (inactive) |  |  |  | 2.33 µM (inactive) |
